Test results taken from PubChem BioAssay AID652281 (Sanford-Burnham Center for Chemical Genomics, 2013).
The source made the active and inactive calls.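 The calls were made as follows: active = compounds toxic to worms, with a half-maximal toxicity dose of 25 µM or lower; inactive = the rest.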

These molecules were tested on C. elegans VP596 worm health composite score, 20-22 h (assay: whole-worm cytotoxicity of SKN-1 inhibitor analogs – whole organism, strain VP596, composite health score, round 2, cytotoxicity control for SKN-1 inhibitor project, SAR follow-up (AID 652281)).

For CCOc1cc(CN2CCCC2)cc(Cl)c1OCc1ccc(Cl)cc1, which IC50 is on record?
The IC50 was > 64 µM (inactive).

For CCOc1cc(CNC2CC2)cc(Cl)c1OCc1ccc(Cl)cc1F, which IC50 is on record?
The IC50 was > 64 µM (inactive).

For CCCNCc1cc(Cl)c(OCc2ccc(Cl)cc2)c(OCC)c1, which IC50 is on record?
Its IC50 is > 64 µM (inactive).

With CCOc1cc(CNC2CC2)cc(Cl)c1OCc1ccc(C#N)cc1 as the molecule, how does the IC50 read?
Its IC50 is > 64 µM (inactive).

For CCOc1cc(CNC2CC2)cc(Cl)c1OCc1ccc(Cl)cc1, which IC50 is on record?
Its IC50 is > 64 µM (inactive).

With CCOc1cc(CN2CCOCC2)cc(Cl)c1OCc1ccc(Cl)cc1 as the molecule, how does the IC50 read?
The IC50 was > 64 µM (inactive).

How did the IC50 turn out when COc1cc(CNC2CCCC2)cc(F)c1OCc1ccc(Cl)cc1 was run?
Its IC50 is > 64 µM (inactive).

CCOc1cc(CN2CCN(C)CC2)cc(Cl)c1OCc1ccc(Cl)cc1 was tested. Which IC50 did it give?
Its IC50 is > 64 µM (inactive).

With CCOc1cc(CNC2CCCC2)cc(Cl)c1OCc1ccc(Br)cc1 as the molecule, how does the IC50 read?
Its IC50 is > 64 µM (inactive).

CCOc1cc(CNC)cc(Cl)c1OCc1ccc(Cl)cc1 was tested. Which IC50 did it give?
Its IC50 is > 64 µM (inactive).

How did the IC50 turn out when C#CCNCc1cc(Cl)c(OCc2ccc(Cl)cc2)c(OCC)c1 was run?
Its IC50 is > 64 µM (inactive).

Which IC50 does the source give for CCOc1cc(CN(C)C2CCCC2)cc(Cl)c1OCc1ccc(Cl)cc1 here?
Its IC50 is > 64 µM (inactive).

Which IC50 does the source give for CCOc1cc(CN2CCCC2)cc(Cl)c1OCc1ccc(F)cc1 here?
Its IC50 is > 64 µM (inactive).

With COc1cc(CNC2CCCC2)cc(Cl)c1OCc1ccc(Cl)cc1 as the molecule, how does the IC50 read?
The IC50 was > 64 µM (inactive).

How did the IC50 turn out when CCOc1cc(CN2CCOCC2)cc(Cl)c1OCc1ccc(F)cc1 was run?
Its IC50 is > 64 µM (inactive).

How did the IC50 turn out when C=CCNCc1cc(Cl)c(OCc2ccc(Cl)cc2)c(OCC)c1 was run?
The IC50 was > 64 µM (inactive).

Which IC50 does the source give for CCOc1cc(CNC2CCCC2)cc(Cl)c1OCc1ccc(Cl)cc1F here?
The IC50 was > 64 µM (inactive).

With CCOc1cc(CNCC2CC2)cc(Cl)c1OCc1ccc(Cl)cc1 as the molecule, how does the IC50 read?
The IC50 was > 64 µM (inactive).

For Clc1ccc(COc2c(Cl)cc(CNC3CCCC3)cc2Cl)cc1, which IC50 is on record?
Its IC50 is > 64 µM (inactive).

Which IC50 does the source give for CCOc1cc(CNC2CCCC2)cc(Cl)c1OCc1ccc(C#N)cc1 here?
The IC50 was > 64 µM (inactive).

Cc1cc(CNC2CCCC2)cc(C)c1OCc1ccc(Cl)cc1 was tested. Which IC50 did it give?
The IC50 was > 64 µM (inactive).

For COc1cc(CNC2CCCC2)cc(Br)c1OCc1ccc(Cl)cc1, which IC50 is on record?
The IC50 was > 64 µM (inactive).

How did the IC50 turn out when CCOc1cc(CN(C(C)=O)C2CCCC2)cc(Cl)c1OCc1ccc(Cl)cc1 was run?
Its IC50 is > 64 µM (inactive).

For CCOc1cc(CN2CCN(C)CC2)cc(Cl)c1OCc1ccc(F)cc1, which IC50 is on record?
Its IC50 is > 64 µM (inactive).

For CCOc1cc(CNC2CC2)cc(Cl)c1OCc1ccc(Br)cc1, which IC50 is on record?
Its IC50 is > 64 µM (inactive).

With CCOc1cc(CN2CCCCC2)cc(Cl)c1OCc1ccc(F)cc1 as the molecule, how does the IC50 read?
The IC50 was > 64 µM (inactive).

Which IC50 does the source give for CCOc1cc(CN2CCCCC2)cc(Cl)c1OCc1ccc(Cl)cc1 here?
Its IC50 is > 64 µM (inactive).
